Measured values as given in PubChem BioAssay AID1259407 (Chemical Carcinogenesis Research Information System (CCRIS), 2018).
The source made the active and inactive calls. The rule behind the calls is not given here.

System: CCRIS mutagenicity, Ames/micronucleus/aberration tests
Test: CCRIS mutagenicity studies
[1] = Test System: AMES SALMONELLA TYPHIMURIUM, Strain/Indicator: TA97, Metabolic Activation: NONE, Method: PREINCUBATION
[2] = Test System: AMES SALMONELLA TYPHIMURIUM, Strain/Indicator: TA97, Metabolic Activation: RAT, LIVER, S-9, AROCLOR 1254, Method: PREINCUBATION
[3] = Test System: AMES SALMONELLA TYPHIMURIUM, Strain/Indicator: TA98, Metabolic Activation: NONE, Method: STANDARD PLATE
[4] = Test System: AMES SALMONELLA TYPHIMURIUM, Strain/Indicator: TA98, Metabolic Activation: RAT, LIVER, S-9, AROCLOR 1254, Method: STANDARD PLATE
[5] = Test System: AMES SALMONELLA TYPHIMURIUM, Strain/Indicator: TA100, Metabolic Activation: NONE, Method: STANDARD PLATE
[6] = Test System: AMES SALMONELLA TYPHIMURIUM, Strain/Indicator: TA100, Metabolic Activation: RAT, LIVER, S-9, AROCLOR 1254, Method: STANDARD PLATE
[7] = Test System: AMES SALMONELLA TYPHIMURIUM, Strain/Indicator: TA102, Metabolic Activation: NONE, Method: PREINCUBATION
[8] = Test System: AMES SALMONELLA TYPHIMURIUM, Strain/Indicator: TA102, Metabolic Activation: RAT, LIVER, S-9, AROCLOR 1254, Method: PREINCUBATION
[9] = Test System: AMES SALMONELLA TYPHIMURIUM, Strain/Indicator: TA1535, Metabolic Activation: NONE, Method: STANDARD PLATE
[10] = Test System: AMES SALMONELLA TYPHIMURIUM, Strain/Indicator: TA1535, Metabolic Activation: RAT, LIVER, S-9, AROCLOR 1254, Method: STANDARD PLATE
[11] = Test System: AMES SALMONELLA TYPHIMURIUM, Strain/Indicator: TA1537, Metabolic Activation: NONE, Method: STANDARD PLATE
[12] = Test System: AMES SALMONELLA TYPHIMURIUM, Strain/Indicator: TA1537, Metabolic Activation: RAT, LIVER, S-9, AROCLOR 1254, Method: STANDARD PLATE
[13] = Test System: AMES SALMONELLA TYPHIMURIUM, Strain/Indicator: TA1538, Metabolic Activation: NONE, Method: STANDARD PLATE
[14] = Test System: AMES SALMONELLA TYPHIMURIUM, Strain/Indicator: TA100, Metabolic Activation: NONE, Method: PREINCUBATION
[15] = Test System: AMES SALMONELLA TYPHIMURIUM, Strain/Indicator: TA98, Metabolic Activation: NONE, Method: PREINCUBATION

With `O=C(O)O` the mutagenic call [1] was “inactive; negative”, the mutagenic call [2] was “inactive; negative” and the mutagenic call (Test System: AMES SALMONELLA TYPHIMURIUM, Strain/Indicator: TA98, Metabolic Activation: HAMSTER, LIVER, S-9, AROCLOR 1254, Method: STANDARD PLATE) was “inactive; negative”. The mutagenic call [3] was “inactive; negative”, the mutagenic call [4] was “inactive; negative” and the mutagenic call (Test System: AMES SALMONELLA TYPHIMURIUM, Strain/Indicator: TA100, Metabolic Activation: HAMSTER, LIVER, S-9, AROCLOR 1254, Method: STANDARD PLATE) was “inactive; negative”. For the same compound, the mutagenic call [5] was “inactive; negative”, the mutagenic call [6] was “inactive; negative” and the mutagenic call [7] was “inactive; negative”. The mutagenic call [8] was “inactive; negative”, the mutagenic call (Test System: AMES SALMONELLA TYPHIMURIUM, Strain/Indicator: TA1535, Metabolic Activation: HAMSTER, LIVER, S-9, AROCLOR 1254, Method: STANDARD PLATE) was “inactive; negative” and the mutagenic call [9] was “inactive; negative”. The mutagenic call [10] was “inactive; negative”, the mutagenic call (Test System: AMES SALMONELLA TYPHIMURIUM, Strain/Indicator: TA1537, Metabolic Activation: HAMSTER, LIVER, S-9, AROCLOR 1254, Method: STANDARD PLATE) was “inactive; negative” and the mutagenic call [11] was “inactive; negative”. The mutagenic call [12] was “inactive; negative”, the mutagenic call (Test System: AMES SALMONELLA TYPHIMURIUM, Strain/Indicator: TA1538, Metabolic Activation: HAMSTER, LIVER, S-9, AROCLOR 1254, Method: STANDARD PLATE) was “inactive; negative” and the mutagenic call [13] was “inactive; negative”. The mutagenic call (Test System: AMES SALMONELLA TYPHIMURIUM, Strain/Indicator: TA1538, Metabolic Activation: RAT, LIVER, S-9, AROCLOR 1254, Method: STANDARD PLATE) was “inactive; negative”, the mutagenic call (Test System: CHINESE HAMSTER V-79, Strain/Indicator: V-79/6-THIOGUANINE, Metabolic Activation: NONE) was “active; positive” and the mutagenic call (Test System: CHINESE HAMSTER V-79, Strain/Indicator: V-79/6-THIOGUANINE, Metabolic Activation: S-9) was “inactive; negative”. The mutagenic call (Test System: Mouse lymphoma, Strain/Indicator: L5178Y (tk+/tk-), Metabolic Activation: None, Method: Suspension/plate) was “inactive; negative” and the mutagenic call (Test System: Mouse lymphoma, Strain/Indicator: L5178Y (tk+/tk-), Metabolic Activation: Rat, Liver, S-9, Aroclor 1254, Method: Suspension/plate) was “inactive; negative”.

`C[C@@H](C(=O)O)N(N=[N+]=[N-])C(=O)OC(C)(C)C` was tested, and the mutagenic call [5] was “active; positive”.

With `O=C(O)c1cccc2cccnc12` the mutagenic call [3] was “inactive; negative”, the mutagenic call [4] was “inactive; negative” and the mutagenic call [5] was “inactive; negative”. The mutagenic call [6] was “inactive; negative”, the mutagenic call [9] was “inactive; negative” and the mutagenic call [10] was “inactive; negative”. The mutagenic call [11] was “inactive; negative” and the mutagenic call [12] was “inactive; negative”.

With `Cc1cc2c3c(ccc2c2ccccc12)[C@@H](O)[C@H](O)[C@@H]1O[C@H]31` the mutagenic call [14] was “inactive; negative”.

In the case of `CC(=O)N(C)c1ccc(N=Nc2ccc(N(C)C)cc2)cc1`, the mutagenic call (Test System: AMES SALMONELLA TYPHIMURIUM, Strain/Indicator: TA98, Metabolic Activation: RAT, LIVER, S-9, POLYCHLORINATED BIPHENYLS, Method: PREINCUBATION) is reported as “active; positive” and the mutagenic call (Test System: AMES SALMONELLA TYPHIMURIUM, Strain/Indicator: TA100, Metabolic Activation: RAT, LIVER, S-9, POLYCHLORINATED BIPHENYLS, Method: PREINCUBATION) is reported as “active; positive”.

For `ONc1ccc2ccccc2c1`, the mutagenic call [3] was “active; positive”, the mutagenic call (Test System: AMES SALMONELLA TYPHIMURIUM, Strain/Indicator: TA98, Metabolic Activation: S-9, Method: STANDARD PLATE) was “active; positive” and the mutagenic call [5] was “active; positive”. For the same compound, the mutagenic call (Test System: AMES SALMONELLA TYPHIMURIUM, Strain/Indicator: TA100, Metabolic Activation: S-9, Method: STANDARD PLATE) was “active; positive”, the mutagenic call [9] was “active; positive” and the mutagenic call [13] was “active; positive”.

For `CC(=O)c1ccccc1`, the mutagenic call [1] was “inactive; negative”, the mutagenic call [2] was “inactive; negative” and the mutagenic call [15] was “inactive; negative”. For the same compound, the mutagenic call (Test System: AMES SALMONELLA TYPHIMURIUM, Strain/Indicator: TA98, Metabolic Activation: RAT LIVER S-9, PHENOBARBITAL AND BETA-NAPHTHOFLAVONE, Method: PREINCUBATION) was “inactive; negative”, the mutagenic call [14] was “inactive; negative” and the mutagenic call (Test System: AMES SALMONELLA TYPHIMURIUM, Strain/Indicator: TA100, Metabolic Activation: RAT LIVER S-9, PHENOBARBITAL AND BETA-NAPHTHOFLAVONE, Method: PREINCUBATION) was “inactive; negative”. The mutagenic call [7] was “inactive; negative”, the mutagenic call [8] was “inactive; negative” and the mutagenic call (Test System: AMES SALMONELLA TYPHIMURIUM, Strain/Indicator: TA1535, Metabolic Activation: NONE, Method: PREINCUBATION) was “inactive; negative”. The mutagenic call (Test System: AMES SALMONELLA TYPHIMURIUM, Strain/Indicator: TA1535, Metabolic Activation: RAT LIVER S-9, PHENOBARBITAL AND BETA-NAPHTHOFLAVONE, Method: PREINCUBATION) was “inactive; negative”, the mutagenic call (Test System: AMES SALMONELLA TYPHIMURIUM, Strain/Indicator: TA1537, Metabolic Activation: NONE, Method: PREINCUBATION) was “inactive; negative” and the mutagenic call (Test System: AMES SALMONELLA TYPHIMURIUM, Strain/Indicator: TA1537, Metabolic Activation: RAT LIVER S-9, PHENOBARBITAL AND BETA-NAPHTHOFLAVONE, Method: PREINCUBATION) was “inactive; negative”. For the same compound, the mutagenic call (Test System: E.COLI, Strain/Indicator: WP2UVRA/PKM101, Metabolic Activation: NONE, Method: PREINCUBATION) was “inactive; negative” and the mutagenic call (Test System: E.COLI, Strain/Indicator: WP2UVRA/PKM101, Metabolic Activation: RAT LIVER S-9, PHENOBARBITAL AND BETA-NAPHTHOFLAVONE, Method: PREINCUBATION) was “inactive; negative”.

In the case of `c1ccc2c(c1)-c1cc3ccccc3cc1[C@@H]1N[C@H]21`, the mutagenic call [15] is reported as “active; positive”, the mutagenic call [3] is reported as “active; positive” and the mutagenic call [5] is reported as “active; positive”.

`Nc1ccc(I)cc1Cl` was tested, and the mutagenic call (End Point: In vitro chromosomal aberrations, Test System: Chinese hamster lung (CHL/IU) cells, Metabolic Activation: Rat, Liver, S9, Phenobarbital and 5,6-benzoflavone) was “active; positive (structural changes). weak response”, the mutagenic call (Test System: Ames Salmonella typhimurium, Strain/Indicator: TA98, Metabolic Activation: None, Method: Preincubation) was “inactive; negative” and the mutagenic call (Test System: Ames Salmonella typhimurium, Strain/Indicator: TA98, Metabolic Activation: Rat, Liver, S9, Sodium phenobarbital and 5,6-benzoflavone (10%), Method: Preincubation) was “inactive; negative”. For the same compound, the mutagenic call (Test System: Ames Salmonella typhimurium, Strain/Indicator: TA100, Metabolic Activation: None, Method: Preincubation) was “inactive; negative”, the mutagenic call (Test System: Ames Salmonella typhimurium, Strain/Indicator: TA1535, Metabolic Activation: None, Method: Preincubation) was “inactive; negative” and the mutagenic call (Test System: Ames Salmonella typhimurium, Strain/Indicator: TA1535, Metabolic Activation: Rat, Liver, S9, Sodium phenobarbital and 5,6-benzoflavone (10%), Method: Preincubation) was “inactive; negative”. For the same compound, the mutagenic call (Test System: Ames Salmonella typhimurium, Strain/Indicator: TA1537, Metabolic Activation: None, Method: Preincubation) was “inactive; negative”, the mutagenic call (Test System: Ames Salmonella typhimurium, Strain/Indicator: TA1537, Metabolic Activation: Rat, Liver, S9, Sodium phenobarbital and 5,6-benzoflavone (10%), Method: Preincubation) was “inactive; negative” and the mutagenic call (Test System: E. coli, Strain/Indicator: WP2uvrA/pKM101, Metabolic Activation: None, Method: Preincubation) was “inactive; negative”. For the same compound, the mutagenic call (Test System: E. coli, Strain/Indicator: WP2uvrA/pKM101, Metabolic Activation: Rat, Liver, S9, Sodium phenobarbital and 5,6-benzoflavone (10%), Method: Preincubation) was “inactive; negative”.

For `Cc1ccccc1OCC(O)CNCCOc1ccc(C(N)=O)cc1` (stereo not drawn), the mutagenic call [3] was “inactive; negative”, the mutagenic call [4] was “inactive; negative” and the mutagenic call [5] was “inactive; negative”. The mutagenic call [6] was “inactive; negative”.

With `O=[N+]([O-])c1cc([N+](=O)[O-])c2c3ccccc3c3cccc4ccc1c2c43` the mutagenic call [3] was “active; positive”.
